Reference: patent publication US20120184590A1, “FORMULATIONS OF INDOLE-3-CARBINOL DERIVED ANTITUMOR AGENTS WITH INCREASED ORAL BIOAVAILABILITY” (UNIVERSITY OF KANSAS, priority 2009, published 2012)
“And” between values parts separate entries of the source, which are not always exact repeats. Identical values can stand only once. “Also recorded” adds a separate entry of the source. Like-named read-outs stand apart in the source and are kept apart here. Marks after values point to notes of the source that are not given here.

Test: Pharmacokinetics of SR13668 in monkeys after i.v. and oral gavage dosing
Format: in vivo, cynomolgus monkeys (macaca fasicularis)
Settings: for Fabs F/(1-ER): blood; for Vd/F: read-out: VZ/F
From the text: Four non-naïve male beagle dogs (approximately 3 years of age; Ridglan Farms Inc. Mt. Horeb, Wis.) and four non-naïve male cynomolgus monkeys [cynos (macaca fasicularis); approximately 7 to 8 years of age; Charles River Laboratories, Inc., Houston, Tex.] were used in this study. Prior to experimental initiation for the present study, the attending veterinarian certified that the animals were healthy and free from disease and parasites.
For both species, each animal was part of each experimental group, with a 7-day interval between treatments to allow for washout of the dosing formulation and its effects. Dosing formulations of SR13668 were administered by oral gavage (intragastric) or intravenous (i.v.) injection as a single dose or once daily for seven consecutive days. Oral to doses were administered at a dosing volume of 5 mL/kg of body weight, while intravenous doses were administered at a dosing volume of 0.5 mL/kg of body weight. Dogs were dosed with 93.6 mg/m^2 SR13668 intravenously in DMSO:PEG300 15:85 (v/v) or orally in Solutol® vehicle (two groups, fed and after an overnight fast). Monkeys were dosed with 84.2 mg/m^2 SR13668 intravenously in DMSO:PEG300 15:85 (v/v) or orally (336.7 mg/m^2 SR13668 for the oral high dose group) in PEG400:Labrasol® 1:1 (v/v) or Solutol® vehicles. Vehicle control groups were used to assess the tolerability of the vehicle and for clinical pathology evaluations.
Blood samples were collected from each animal at 10 time points (0, 0.25, 0.5, 1, 2, 4, 6, 8, 12 and 24 hours post-dose) during the first and last 24-hour segment of each dosing regimen. For single intravenous dose experiments, samples were collected during the 24-hour post-dose period only. Samples were transferred to Vacutainer tubes containing ethylenediaminetetraacetic acid (EDTA; Fisher Scientific, Pittsburgh, Pa.). The tubes were inverted several times to mix and then placed on ice until storage or centrifugation for plasma preparation. After centrifugation, the plasma was transferred into storage tubes (0.5 mL), which were placed on dry ice and then stored frozen (approximately −70° C.).
Levels of SR13668 in plasma and blood were measured using a tandem mass to spectrometer (API 3000; Applied Biosystems/MDS Sciex, Foster City, Calif.) equipped with a high performance liquid chromatograph (Agilent 1200; Agilent Technologies, Wilmington, Del.). For SR13668 determination, a 100 μL blood or plasma aliquot was mixed with 1 mL of acetonitrile (ACN; Sigma-Aldrich, St. Louis, Mo.). After vortex-mixing for one minute, the sample was centrifuged at 4° C. and 7000 RPM for 10 minutes to remove precipitated proteins, and the supernatant was transferred to a clean tube and dried under nitrogen flow at room temperature (approximately 25° C.). After the evaporation was completed, the residue was reconstituted in 500 μL of ACN/water (v/v 70:30), and vortex-mixed and centrifuged again. An aliquot of the resulting supernatant was transferred to an autosampler tube for instrumental analysis.
A freshly prepared SR13668 standard curve was analyzed along with samples on each day of analysis. The chromatographic column was a Luna 3μ C18(2) 110 Å 30×2.0 mm (Phenomenex, Torrance, Calif.). The column temperature was maintained at 25° C., and a flow rate of 0.30 mL/min was used. The mobile phase consisted of MPA: formic acid in water (0.05%, v/v) and MPB: formic acid in ACN (0.05%, v/v). The mobile phase gradient was as follows: after injection, initial conditions with MPA at 40% were held for 0.01 min, decreased to 5% and held constant for 3 min, returning to initial conditions for another 3 min of re-equilibration time. Retention time of SR13668 was approximately 2.4 min. Total run time was 6 min. A turbo ion spray interface was used as the ion source operating in negative ion mode. Acquisition was performed in multiple reaction monitoring mode using ions 429.15 (Q1) and 414.12 (Q3) Dalton. […]

[1] = male, cynomolgus monkey, plasma, iv, 7.02 mg/kg, plasma, 84.2 mg/m^2 (7.02 mg/kg) i.v. single dose, DMSO:PEG300 15:85 v/v, fed
[2] = male, cynomolgus monkey, plasma, po, 7.02 mg/kg, 84.2 mg/m^2 (7.02 mg/kg) oral gavage, Solutol, seventh daily dose, fed
[3] = male, cynomolgus monkey, plasma, po, 7.02 mg/kg, plasma, 84.2 mg/m^2 (7.02 mg/kg) oral gavage, PEG400:Labrasol 1:1 v/v, seventh daily dose, fed
[4] = male, cynomolgus monkey, plasma, po, 28.06 mg/kg, plasma, 336.7 mg/m^2 (28.06 mg/kg) oral gavage, PEG400:Labrasol 1:1 v/v, seventh daily dose, fed
[5] = male, cynomolgus monkey, whole blood, iv, 7.02 mg/kg, whole blood, 84.2 mg/m^2 (7.02 mg/kg) iv single dose, DMSO:PEG300 15:85 v/v, fed
[6] = male, cynomolgus monkey, whole blood, po, 7.02 mg/kg, 84.2 mg/m^2 (7.02 mg/kg) oral gavage, Solutol, seventh daily dose, fed
[7] = male, cynomolgus monkey, whole blood, po, 7.02 mg/kg, whole blood, 84.2 mg/m^2 (7.02 mg/kg) oral gavage, PEG400:Labrasol 1:1 v/v, seventh daily dose, fed
[8] = male, cynomolgus monkey, whole blood, po, 28.06 mg/kg, whole blood, 336.7 mg/m^2 (28.06 mg/kg) oral gavage, PEG400:Labrasol 1:1 v/v, seventh daily dose, fed
[9] = male, cynomolgus, cynomolgus monkey, plasma, iv, 7.02 mg/kg, plasma, 84.2 mg/m^2 (7.02 mg/kg) i.v. single dose, DMSO:PEG300 15:85 v/v, fed
[10] = male, cynomolgus, cynomolgus monkey, plasma, po, 7.02 mg/kg, plasma, 84.2 mg/m^2 (7.02 mg/kg) oral gavage, PEG400:Labrasol 1:1 v/v, seventh daily dose, fed
[11] = plasma, 84.2 mg/m^2 (7.02 mg/kg) i.v. single dose, DMSO:PEG300 15:85 v/v, fed
[12] = whole blood, 84.2 mg/m^2 (7.02 mg/kg) iv single dose, DMSO:PEG300 15:85 v/v, fed

SMILES: CCOC(=O)c1ccc2[nH]c3c(OC)c4[nH]c5ccc(C(=O)OCC)cc5c4cc3c2c1 [SR13668, 2,10-dicarbethoxy-6-methoxy-5,7-dihydro-indolo-(2,3-b)carbazole]
- effect of fourfold dose increase on oral bioavailability (PEG400:Labrasol, 84.2 vs 336.7 mg/m^2): about a fourfold decrease in the bioavailability; also recorded: lower oral bioavailability
- CL (blood clearance, 84.2 mg/m^2 (7.02 mg/kg) oral gavage, PEG400:Labrasol 1:1 v/v, fed): 121 mL/min/kg
- CL (blood clearance, 84.2 mg/m^2 (7.02 mg/kg) oral gavage, Solutol, fed): 47.7 mL/min/kg
- CL (blood clearance, 336.7 mg/m^2 (28.06 mg/kg) oral gavage, PEG400:Labrasol 1:1 v/v, fed): 332 mL/min/kg
- Fabs F/(1-ER) (84.2 mg/m^2 (7.02 mg/kg) oral gavage, PEG400:Labrasol 1:1 v/v, fed): 4.1%
- Fabs F/(1-ER) (84.2 mg/m^2 (7.02 mg/kg) oral gavage, Solutol, fed): 9.1%
- Fabs F/(1-ER) (336.7 mg/m^2 (28.06 mg/kg) oral gavage, PEG400:Labrasol 1:1 v/v, fed): 1.2%
- ER CLiv/Q (iv blood clearance over hepatic blood flow 43.6 mL/min/kg): 0.083
- AUC(0-inf) [1]: 13300 ± 4920 ng·h/mL
- Cmax [1]: 6090 ± 1080 ng/mL
- MRT [1]: 6.9 ± 1.1 h
- AUC(0-inf) [2]: 837 ± 144 ng·h/mL
- Cmax [2]: 71.4 ± 16 ng/mL
- MRT [2]: 12.8 ± 2.1 h
- Tmax [2]: 8 ± 3.3 h
- AUC(0-inf) [3]: 437 ± 312 ng·h/mL
- Cmax [3]: 40.5 ± 38 ng/mL
- MRT [3]: 11.6 ± 1.3 h
- CL/F (male, cynomolgus monkey, plasma, po, 7.02 mg/kg, plasma, 84.2 mg/m^2 (7.02 mg/kg) oral gavage, PEG400:Labrasol 1:1 v/v, seventh daily dose, fed, read-out: CL/F (converted)): 372 mL/min/kg
- Vd/F [3]: 203 ± 130 L/kg
- CL/F (male, cynomolgus monkey, plasma, po, 7.02 mg/kg, plasma, 84.2 mg/m^2 (7.02 mg/kg) oral gavage, Solutol, seventh daily dose, fed, read-out: CL/F (converted)): 143 mL/min/kg
- Vd/F (male, cynomolgus monkey, plasma, po, 7.02 mg/kg, plasma, 84.2 mg/m^2 (7.02 mg/kg) oral gavage, Solutol, seventh daily dose, fed): 90.5 ± 9.9 L/kg
- AUC(0-inf) [4]: 367 ± 154 ng·h/mL
- Cmax [4]: 43.7 ± 9.2 ng/mL
- MRT [4]: 9.1 ± 2.4 h
- Tmax [4]: 3.5 ± 1.9 h
- CL/F (male, cynomolgus monkey, plasma, po, 28.06 mg/kg, plasma, 336.7 mg/m^2 (28.06 mg/kg) oral gavage, PEG400:Labrasol 1:1 v/v, seventh daily dose, fed, read-out: CL/F (converted)): 1440 mL/min/kg
- Vd/F [4]: 603 ± 236 L/kg
- AUC(0-inf) [5]: 35400 ± 12400 ng·h/mL
- Cmax [5]: 11100 ± 776 ng/mL
- MRT [5]: 9 ± 2.2 h
- Tmax [5]: 0.25 h
- half-life [5]: 8.6 ± 1.7 h
- AUC(0-inf) [6]: 2490 ± 377 ng·h/mL
- Cmax [6]: 227 ± 56 ng/mL
- MRT [6]: 13.3 ± 1.1 h
- Tmax [6]: 6.5 ± 3.8 h
- half-life [6]: 7.7 ± 0.6 h
- AUC(0-inf) [7]: 1560 ± 1330 ng·h/mL
- Cmax [7]: 129 ± 140 ng/mL
- MRT [7]: 11.5 ± 1.2 h
- Tmax [7]: 7 ± 0.35 h
- half-life [7]: 5.8 ± 0.9 h
- CL/F (male, cynomolgus monkey, whole blood, po, 7.02 mg/kg, whole blood, 84.2 mg/m^2 (7.02 mg/kg) oral gavage, PEG400:Labrasol 1:1 v/v, seventh daily dose, fed, read-out: CL/F (converted)): 121 mL/min/kg
- Vd/F [7]: 61.4 ± 44 L/kg
- CL/F (male, cynomolgus monkey, whole blood, po, 7.02 mg/kg, whole blood, 84.2 mg/m^2 (7.02 mg/kg) oral gavage, Solutol, seventh daily dose, fed, read-out: CL/F (converted)): 47.7 mL/min/kg
- Vd/F (male, cynomolgus monkey, whole blood, po, 7.02 mg/kg, whole blood, 84.2 mg/m^2 (7.02 mg/kg) oral gavage, Solutol, seventh daily dose, fed): 31.6 ± 5 L/kg
- AUC(0-inf) [8]: 1520 ± 445 ng·h/mL
- Cmax [8]: 168 ± 35 ng/mL
- MRT [8]: 10.9 ± 2.2 h
- Tmax [8]: 3.5 ± 1.9 h
- half-life [8]: 6.8 ± 1.2 h
- CL/F (male, cynomolgus monkey, whole blood, po, 28.06 mg/kg, whole blood, 336.7 mg/m^2 (28.06 mg/kg) oral gavage, PEG400:Labrasol 1:1 v/v, seventh daily dose, fed, read-out: CL/F (converted)): 332 mL/min/kg
- Vd/F [8]: 195 ± 73 L/kg
- Tmax [9]: 0.25 h
- half-life [9]: 7.6 ± 0.8 h
- half-life (male, cynomolgus, cynomolgus monkey, plasma, po, 7.02 mg/kg, 84.2 mg/m^2 (7.02 mg/kg) oral gavage, Solutol, seventh daily dose, fed): 7.4 ± 0.7 h
- Tmax [10]: 5 ± 1.2 h
- half-life [10]: 6 ± 1.3 h
- half-life (male, cynomolgus, cynomolgus monkey, plasma, po, 28.06 mg/kg, plasma, 336.7 mg/m^2 (28.06 mg/kg) oral gavage, PEG400:Labrasol 1:1 v/v, seventh daily dose, fed): 5 ± 1.2 h
- clearance (male, cynomolgus, cynomolgus monkey, whole blood, blood clearance, 84.2 mg/m^2 (7.02 mg/kg) iv, DMSO:PEG300 15:85 v/v, fed): 3.63 mL/min/kg
- CL/F [11]: 0.580 ± 0.20^c,d L/hr/kg
- F0-∞ [11]: 100%
- F0-∞ (plasma, 84.2 mg/m^2 (7.02 mg/kg) oral gavage, PEG400:Labrasol 1:1 v/v, seventh daily dose, fed): 3.3 ± 2.0^f %
- F0-∞ (plasma, 84.2 mg/m^2 (7.02 mg/kg) oral gavage, Solutol, seventh daily dose, fed): 7.3 ± 2.9^i %
- F0-∞ (plasma, 336.7 mg/m^2 (28.06 mg/kg) oral gavage, PEG400:Labrasol 1:1 v/v, seventh daily dose, fed): 0.72 ± 0.28^i %
- CL/F [12]: 0.218 ± 0.078^c,d,h L/hr/kg
- F0-∞ [12]: 100%
- F0-∞ (whole blood, 84.2 mg/m^2 (7.02 mg/kg) oral gavage, PEG400:Labrasol 1:1 v/v, seventh daily dose, fed): 3.8 ± 3.1^e,h % and 3.8%
- F0-∞ (whole blood, 84.2 mg/m^2 (7.02 mg/kg) oral gavage, Solutol, seventh daily dose, fed): 8.3 ± 3.1^e,h,i % and 8.3%
- F0-∞ (whole blood, 336.7 mg/m^2 (28.06 mg/kg) oral gavage, PEG400:Labrasol 1:1 v/v, seventh daily dose, fed): 1.1 ± 0.44^h % and 1.1%
